Source: patent US9573913B2, “Cathepsin cysteine protease inhibitors” (Merck Sharp & Dohme Corp., priority 2013, dated 2017)

Key:
[1] = biological target: T1, human cathepsin F (Homo sapiens, UniProt Q9UBX1); assay: Cathepsin F assay (hCat F); type: biochemical; settings: Z-Phe-Arg-AMC substrate, pH 5.5, 15 min preincubation; read-out: hCat F (IP (nM))
T1 sequence (Q9UBX1 271-484): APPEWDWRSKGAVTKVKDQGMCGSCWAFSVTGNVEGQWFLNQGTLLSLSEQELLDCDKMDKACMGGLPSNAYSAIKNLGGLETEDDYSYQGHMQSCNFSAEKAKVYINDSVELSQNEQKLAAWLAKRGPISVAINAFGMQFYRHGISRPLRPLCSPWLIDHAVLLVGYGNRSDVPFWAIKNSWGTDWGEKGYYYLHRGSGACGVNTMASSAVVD
Procedure: Cathepsin F assay (hCat F)
(§1) Serial dilutions (1/3) from 500 μM down to 0.025 μM of test compounds were prepared in dimethyl sulfoxide (DMSO). Then 0.5 μL of DMSO from each dilution were added to 18.75 μL of assay buffer (MES, 50 mM (pH 5.5); EDTA, 2.5 mM; DTT, 2.5 mM and 10% DMSO) containing human cathepsin F (10 nM) in assay buffer solution. The assay solutions were mixed for 5-10 seconds on a shaker plate and incubated for 15 minutes at room temperature. Z-Phe-Arg-AMC (8 μM) in 6.25 μL of assay buffer was added to the assay solutions. Hydrolysis of the coumarin leaving group (AMC) was followed by spectrofluorometry (Exλ=360 nm; Emλ=460 nm) for 20 minutes. Percent of inhibition were calculated by fitting experimental values to standard mathematical model for dose response curve.

[2] = biological target: human cathepsin K (UniProt P43236); assay: Cathepsin K Assay (hrbCat K); type: biochemical; settings: Z-Leu-Arg-AMC substrate, pH 5.5, 15 min preincubation; read-out: hrbCat K (IP (nM))
Procedure: Cathepsin K Assay (hrbCat K)
as §1, with “Then” for “Serial dilutions (1/3) from 500 μM down to 0.025 μM of test compounds were prepared in dimethyl sulfoxide (DMSO). Then”, “K (0.4” for “F (10”, “Z-Leu-Arg-AMC” for “Z-Phe-Arg-AMC”, “30” for “20”

## N#CCNC(=O)C1CCCCC1c1nc(-c2ccccc2)sc1-c1ccc(N2CCS(=O)(=O)CC2)cc1 (racemic) [Example 247, N-(cyanomethyl)-2-(5-(4-(1,1-dioxidothiomorpho-lino)phenyl)-2-phenylthiazol-4-yl)cyclohexane-carboxamide]
[1]
  IC50: 229 nM
[2]
  IC50: 2.1 nM

## N#CC1(NC(=O)[C@@H]2CC3CC3C[C@H]2c2nc(-c3cncc(F)c3)sc2-c2ccc(N3CCS(=O)(=O)CC3)cc2)CC1 (single isomer, unassigned) [Compound 3, (1S or 1R,3R,4R,6R or 6S)-N-(1-Cyanocyclopropyl)-4-(5-(4-(1,1-dioxidothiomorpholino)phenyl)-2-(5-fluoropyridin-3-yl)thiazol-4-yl)bicyclo[4.1.0]heptane-3-carboxamide]
[1]
  IC50: 225 nM
[2]
  IC50: 0.7 nM

## N#CC1(NC(=O)[C@@H]2CC3CC3C[C@H]2c2nc(-c3cncc(F)c3)sc2-c2ccc(N3CCS(=O)(=O)CC3)cc2)CC1 (single isomer, unassigned) [Compound 4, (1R or 1S,3R,4R,6S or 6R)-N-(1-Cyanocyclopropyl)-4-(5-(4-(1,1-dioxidothiomorpholino)phenyl)-2-(5-fluoropyridin-3-yl)thiazol-4-yl)bicyclo[4.1.0]heptane-3-carboxamide]
[1]
  IC50: 439 nM
[2]
  IC50: 0.9 nM

## N#CC1(NC(=O)[C@@H]2CC3CC3C[C@H]2c2nc(-c3ccc(F)cn3)sc2-c2ccc(N3CCS(=O)(=O)CC3)cc2)CC1 (single isomer, unassigned) [Example 100, (1S or 1R,3R,4R,6R or 6S)-N-(1-cyanocyclopropyl)-4-(5-(4-(1,1-dioxidothiomorpho-lino)phenyl)-2-(5-fluoropyridin-2-yl)thiazol-4-yl)bicyclo[4.1.0] heptane-3-carboxamide]
[1]
  IC50: 632 nM
[2]
  IC50: 1.7 nM

## N#CC1(NC(=O)[C@@H]2CC3CC3C[C@H]2c2nc(-c3ccc(F)cn3)sc2-c2ccc(N3CCS(=O)(=O)CC3)cc2)CC1 (single isomer, unassigned) [Example 105, (1R or 1S,3R,4R,6S or 6R)-N-(1-cyanocyclopropyl)-4-(5-(4-(1,1-dioxidothiomorpho-lino)phenyl)-2-(5-fluoropyridin-2-yl)thiazol-4-yl)bicyclo[4.1.0] heptane-3-carboxamide]
[1]
  IC50: 371 nM
[2]
  IC50: 0.8 nM

## N#CC1(NC(=O)[C@@H]2CC3CC3C[C@H]2c2nc(-c3cncc(Cl)c3)sc2-c2ccc(N3CCS(=O)(=O)CC3)cc2)CC1 (single isomer, unassigned) [Example 109, (1S or R,3R,4R,6R or S)-4-(2-(5-chloropyridin-3-yl)-5-(4-(1,1-dioxidothiomorpho-lino)phenyl)thiazol-4-yl)-N-(1-cyanocyclopropyl) bicyclo[4.1.0]heptane-3-carboxamide]
[1]
  IC50: 258 nM
[2]
  IC50: 0.6 nM

## N#CC1(NC(=O)[C@@H]2CC3CC3C[C@H]2c2nc(-c3cncc(F)c3)sc2-c2ccc(N3CCS(=O)(=O)CC3)cc2)CC1 (single isomer, unassigned) [Example 111, (1S or 1R,3R,4R,6R or 6S)-N-(1-cyanocyclopropyl)-4-(5-(4-(1,1-dioxidothiomorpho-lino)phenyl)-2-(5-fluoropyridin-3-yl)thiazol-4-yl)bicyclo[4.1.0] heptane-3-carboxamide]
[1]
  IC50: 225 nM
[2]
  IC50: 0.7 nM

## N#CC1(NC(=O)[C@@H]2CC3CC3C[C@H]2c2nc(-c3cncc(F)c3)sc2-c2ccc(N3CCS(=O)(=O)CC3)cc2)CC1 (single isomer, unassigned) [Example 112, (1R or 1S,3R,4R,6S or 6R)-N-(1-cyanocyclopropyl)-4-(5-(4-(1,1-dioxidothiomorpho-lino)phenyl)-2-(5-fluoropyridin-3-yl)thiazol-4-yl)bicyclo[4.1.0] heptane-3-carboxamide]
[1]
  IC50: 439 nM
[2]
  IC50: 0.9 nM

## N#CC1(NC(=O)[C@@H]2CC3CC3C[C@H]2c2nc(-c3cncc(Cl)c3)sc2-c2ccc(N3CCS(=O)(=O)CC3)cc2)CC1 (single isomer, unassigned) [Example 113]
[1]
  IC50: 482 nM
[2]
  IC50: 0.8 nM

## CC(C#N)NC(=O)[C@@H]1C[C@@H](F)CC[C@H]1c1nc(-c2cncc(F)c2)sc1-c1ccc(N2CCS(=O)(=O)CC2)cc1 (single isomer, unassigned) [Example 126, (1R,2R,5S)-N-((S or R)-1-cyanoethyl)-2-(5-(4-(1,1-dioxidothiomorpho-lino)phenyl)-2-(5-fluoropyridin-3-yl)thiazol-4-yl)-5-fluorocyclohexane-carboxamide]
[1]
  IC50: 1760 nM
[2]
  IC50: 1.7 nM

## CC(C#N)NC(=O)[C@@H]1C[C@@H](F)CC[C@H]1c1nc(-c2cncc(F)c2)sc1-c1ccc(N2CCS(=O)(=O)CC2)cc1 (single isomer, unassigned) [Example 127, (1R,2R,5S)-N-((R or S)-1-cyanoethyl)-2-(5-(4-(1,1-dioxidothiomorpho-lino)phenyl)-2-(5-fluoropyridin-3-yl)thiazol-4-yl)-5-fluorocyclohexane-carboxamide]
[1]
  IC50: ≥ 10000 nM
[2]
  IC50: 42.5 nM

## N#CC(NC(=O)[C@@H]1CCCC[C@H]1c1nc(-c2ccc(F)cn2)sc1-c1ccc(N2CCS(=O)(=O)CC2)cc1)C1CCOCC1 (single isomer, unassigned) [Example 185, (1R,2R)-N-((R or S)-cyano(tetrahydro-2H-pyran-4-yl)methyl)-2-(5-(4-(1,1-dioxidothiomorpho-lino)phenyl)-2-(5-fluoropyridin-2-yl)thiazol-4-yl)cyclohexane-carboxamide]
[1]
  IC50: 695 nM
[2]
  IC50: 1.3 nM

## N#CC(NC(=O)[C@@H]1CCCC[C@H]1c1nc(-c2ccc(F)cn2)sc1-c1ccc(N2CCS(=O)(=O)CC2)cc1)C1CCOCC1 (single isomer, unassigned) [Example 186, (1R,2R)-N-((S or R)-cyano(tetrahydro-2H-pyran-4-yl)methyl)-2-(5-(4-(1,1-dioxidothiomorpho-lino)phenyl)-2-(5-fluoropyridin-2-yl)thiazol-4-yl)cyclohexane-carboxamide]
[1]
  IC50: ≥ 10000 nM
[2]
  IC50: 1900 nM

## CC(C)C(C#N)NC(=O)[C@@H]1CCCC[C@H]1c1nc(-c2ccc(F)cn2)sc1-c1ccc(N2CCS(=O)(=O)CC2)cc1 (single isomer, unassigned) [Example 187, (1R,2R)-N-((S or R)-1-cyano-2-methylpropyl)-2-(5-(4-(1,1-dioxidothiomorpho-lino)phenyl)-2-(5-fluoropyridin-2-yl)thiazol-4-yl)cyclohexane-carboxamide]
[1]
  IC50: ≥ 10000 nM
[2]
  IC50: 3820 nM

## CCC(C#N)NC(=O)[C@@H]1CCCC[C@H]1c1nc(-c2ccc(F)cn2)sc1-c1ccc(N2CCS(=O)(=O)CC2)cc1 (single isomer, unassigned) [Example 188, (1R,2R)-N-((S or R)-1-cyanopropyl)-2-(5-(4-(1,1-dioxidothiomorpho-lino)phenyl)-2-(5-fluoropyridin-2-yl)thiazol-4-yl)cyclohexane-carboxamide]
[1]
  IC50: 6710 nM
[2]
  IC50: 15.3 nM

## CC(C)C(C#N)NC(=O)[C@@H]1CCCC[C@H]1c1nc(-c2ccc(F)cn2)sc1-c1ccc(N2CCS(=O)(=O)CC2)cc1 (single isomer, unassigned) [Example 191, (1R,2R)-N-((R or S)-1-cyano-2-methylpropyl)-2-(5-(4-(1,1-dioxidothiomorpho-lino)phenyl)-2-(5-fluoropyridin-2-yl)thiazol-4-yl)cyclohexane-carboxamide]
[1]
  IC50: 691 nM
[2]
  IC50: 1.5 nM

## CCC(C#N)NC(=O)[C@@H]1CCCC[C@H]1c1nc(-c2ccc(F)cn2)sc1-c1ccc(N2CCS(=O)(=O)CC2)cc1 (single isomer, unassigned) [Example 192, (1R,2R)-N-((R or S)-1-cyanopropyl)-2-(5-(4-(1,1-dioxidothiomorpho-lino)phenyl)-2-(5-fluoropyridin-2-yl)thiazol-4-yl)cyclohexane-carboxamide]
[1]
  IC50: 103 nM
[2]
  IC50: 0.4 nM

## N#CC(CC(F)(F)F)NC(=O)[C@@H]1CCCC[C@H]1c1nc(-c2ccc(F)cn2)sc1-c1ccc(N2CCS(=O)(=O)CC2)cc1 (single isomer, unassigned) [Example 193, (1R,2R)-N-((R or S)-1-cyano-3,3,3-trifluoropropyl)-2-(5-(4-(1,1-dioxidothiomorpho-lino)phenyl)-2-(5-fluoropyridin-2-yl)thiazol-4-yl)cyclohexane-carboxamide]
[1]
  IC50: 21 nM
[2]
  IC50: 0.6 nM
